Calls of active or inactive are those of the source. No cut-off for these calls is given here.
Tested on: Neuron
Experiment: Neurotrophic activity in Sprague-Dawley rat neurons assessed as induction of neurite outgrowth at 0.1 to 10 uM after 5 days by microscopy
Format: functional, cell-based

`C[C@@H]1[C@H](O)C=C2[C@@]13C[C@@H](OC(=O)[C@@H]3O)[C@@]1(O)C(=O)OC[C@@]21C` was tested, and the Activity was “Active”.

With `COC(=O)C1(O)O[C@@H]2C[C@@]13C(=CC(=O)[C@@H]3C)[C@]1(C)COC(=O)[C@]21O` (mixture of isomers) the Activity was “Active”.

Source: ChEMBL document CHEMBL1148121, “New seco-prezizaane-type sesquiterpenes, jiadifenin with neurotrophic activity and 1,2-dehydroneomajucin from Illicium jiadifengpi” (J Nat Prod, 2002)
